Tested on: TNFa release from stimulated peripheral blood monocytes (PBMCs)
Test: Inhibition by ethyl pyruvate of TNFa release from LPS-stimulated PBMCs (ELISA)
Assay type: cell-based
Settings: for TNFa release, LPS (5 ug/ml) / TNFa release, LPS (10 ug/ml): ELISA; for inhibition at 5000 µM / inhibition at 10000 µM / inhibition at 25000 µM / inhibition at 50000 µM: PBMC
Experimental: The Effect of Alpha-Ketoalkanoic Acid on TNFa Release from Stimulated Peripheral Blood Monocytes (PBMCS)
The cells were cultured in RPMI 1640 supplemented with 1% serum albumin for approximately 12 hours before treating with LPS (Lipopolysaccharide from E. Coli) at increasing concentrations to induce TNFa release. […] The effects of ethyl pyruvate (EP) on PBMC=s macrophages cultures with 5-10 micrograms of LPS was used to stimulate relase of TNFa.
Inhibition by Ethyl Pyruvate of TNFa Release (Measured via ELISA Assay)

## CCOC(=O)C(C)=O [EP, ethyl pyruvate]
EP 5 mM, LPS 5 ug/ml
  TNFa release, LPS (5 ug/ml): 450 arbitrary fluorescence units
  inhibition at 5000 µM: 12%
EP 5 mM, LPS 10 ug/ml
  TNFa release, LPS (10 ug/ml): 480 arbitrary fluorescence units
  inhibition at 5000 µM: 6%
EP 10 mM, LPS 5 ug/ml
  TNFa release, LPS (5 ug/ml): 275 arbitrary fluorescence units
  inhibition at 10000 µM: 47%
EP 10 mM, LPS 10 ug/ml
  TNFa release, LPS (10 ug/ml): 310 arbitrary fluorescence units
  inhibition at 10000 µM: 59%
EP 25 mM, LPS 5 ug/ml
  TNFa release, LPS (5 ug/ml): 201 arbitrary fluorescence units
  inhibition at 25000 µM: 51%
EP 25 mM, LPS 10 ug/ml
  TNFa release, LPS (10 ug/ml): 190 arbitrary fluorescence units
  inhibition at 25000 µM: 75%
EP 50 mM, LPS 5 ug/ml
  TNFa release, LPS (5 ug/ml): 200 arbitrary fluorescence units
  inhibition at 50000 µM: 51%
EP 50 mM, LPS 10 ug/ml
  TNFa release, LPS (10 ug/ml): 180 arbitrary fluorescence units
  inhibition at 50000 µM: 76%
LPS & EP incubated in the cultures, different concentrations
  Inhibition of TNFa release (in words): effective inhibitor of TNFa release

Source: patent US20090012163A1, “Compositions containing Mg/Zn/F-CaP plus inhibitors of pro-inflammatory cytokines (alpha ketoalkanoic acid compound) for osteoporosis prevention, therapy and treatment of bone diseases” (priority 2007, published 2009)
